Assay results taken from patent US9763998B2, “Serpins: methods of therapeutic β-cell regeneration and function” (Joslin Diabetes Center, Inc., priority 2013, dated 2017).

B1: SerpinB1: 42 kD serine peptidase inhibitor protein regulating neutrophil proteases; used as recombinant human SerpinB1 (protein, UniProt P30740 1-379, looked up)
Leukocyte elastase inhibitor: MEQLSSANTRFALDLFLALSENNPAGNIFISPFSISSAMAMVFLGTRGNTAAQLSKTFHFNTVEEVHSRFQSLNADINKRGASYILKLANRLYGEKTYNFLPEFLVSTQKTYGADLASVDFQHASEDARKTINQWVKGQTEGKIPELLASGMVDNMTKLVLVNAIYFKGNWKDKFMKEATTNAPFRLNKKDRKTVKMMYQKKKFAYGYIEDLKCRVLELPYQGEELSMVILLPDDIEDESTGLKKIEEQLTLEKLHEWTKPENLDFIEVNVSLPRFKLEESYTLNSDLARLGVQDLFNSSKADLSGMSGARDIFISKIVHKSFVEVNEEGTEAAAATAGIATFCMLMPEENFTADHPFLFFIRHNSSGSILFLGRFSSP

How the values were obtained:
[1] = test system: freshly isolated primary mouse islets (β-cells); test: Primary mouse islet β-cell proliferation by Ki67 immunofluorescent staining (SerpinB1, ovalbumin, Sivelestat); format: cell-based
Description: To test whether SerpinB1 is a β-cell growth factor, we cultured freshly isolated primary mouse islets in presence of various doses of recombinant human SerpinB1 or ovalbumin (SerpinB14) and evaluated β-cell proliferation by Ki67 immunofluorescent staining (known to those of ordinary skill in the art). […] A major substrate of SerpinB1 is neutrophil elastase. To investigate whether the proliferative action of SerpinB1 is mediated by antagonizing neutrophil elastase activity, we assessed the ability of the neutrophil elastase inhibitor, Sivelestat (Sivelestat is the International Nonproprietary Name (INN) as given by the World Health Organization (WHO); the chemical name is: N-{2-[({4-[(2,2-dimethylpropanoyl)oxy]phenyl}sulfonyl)amino]benzoyl}glycine), to stimulate islet β-cell proliferation in vitro.
In all experiments, cell counting was manually performed in a blinded fashion by a single observer. BrdU+ or Ki67+β cells were assessed by immunofluorescence microscopy. Insulin+ cells showing nuclear DAPI staining were considered as β cells. Insulin+ cells showing nuclear colocalized staining for DAPI+ and Ki67+ (or BrdU+) were counted as proliferating β cells. The double-positive cells (Ins+/BrdU+ or Ins+/Ki67+) were confirmed in randomly selected cells in all experiments by confocal microscopy.

[2] = test system: human (EndoC-βH1) β-cells; test: Ki67 positive human β-cells (EndoC-βH1) with Sivelestat; format: cell-based; details: 100 μg/ml; compared to non-treated cells
[3] = 1 μg/ml, SerpinB1 compared to islets cultured at a similar concentration of ovalbumin

| Molecule | number of proliferating insulin+ cells ([1]; higher doses (e.g. 10 and 50 μg/ml)) | islet β-cell proliferation in vitro ([1]; low doses (1 and 5 μg/ml), FIG. 12) | number of Ki67 positive β-cells [2] | Ki67+ insulin+ cells (β-cell proliferation) [1, 3] | Ki67+ insulin+ cells (β-cell proliferation) ([1]; isolated mouse islets cultured with various doses of recombinant SerpinB1) |
| --- | --- | --- | --- | --- | --- |
| CC(C)(C)C(=O)Oc1ccc(S(=O)(=O)Nc2ccccc2C(=O)NCC(=O)O)cc1 [Sivelestat, N-{2-[({4-[(2,2-dimethylpropanoyl)oxy]phenyl}sulfonyl)amino]benzoyl}glycine] | substantial increase | do not enhance β-cell proliferation | increased |  |  |
| ovalbumin: ovalbumin (SerpinB14), control protein for SerpinB1 in islet culture |  |  |  | normal low β-cell proliferation |  |
| B1 |  |  |  | reached statistical significance | dose-dependent increase |
